From the NIST ThermoML archive (doi:10.1016/j.fluid.2018.11.011)
± gives the expanded uncertainty stated by the source.

Assay: activity coefficient (dimensionless); of the first substance listed, at infinite dilution; xn = mol fraction of the nth substance listed
Conditions: 308 K; 101.33 kPa; Liquid; Chromatography; x1 = 0

SMILES	activity coefficient
C=CCCCCC [1-heptene] + CCCCCCCCCC[N+](C)(C)CCCCCCCCCC.F[B-](F)(F)F	1.79 ± 0.19
C=CCCCCC [1-heptene] + CCCCCCCCCC[N+](C)(C)CCCCCCCCCC.[O-][Cl+3]([O-])([O-])[O-]	2.69 ± 0.28
C#CCCCCC [1-heptyne] + CCCCCCCCCC[N+](C)(C)CCCCCCCCCC.F[B-](F)(F)F	0.892 ± 0.091
C#CCCCCC [1-heptyne] + CCCCCCCCCC[N+](C)(C)CCCCCCCCCC.[O-][Cl+3]([O-])([O-])[O-]	1.14 ± 0.12
C#CCCCC [1-hexyne] + CCCCCCCCCC[N+](C)(C)CCCCCCCCCC.F[B-](F)(F)F	0.85 ± 0.087
C#CCCCC [1-hexyne] + CCCCCCCCCC[N+](C)(C)CCCCCCCCCC.[O-][Cl+3]([O-])([O-])[O-]	0.732 ± 0.076
C=CCCC [1-pentene] + CCCCCCCCCC[N+](C)(C)CCCCCCCCCC.F[B-](F)(F)F	1.27 ± 0.13
C=CCCC [1-pentene] + CCCCCCCCCC[N+](C)(C)CCCCCCCCCC.[O-][Cl+3]([O-])([O-])[O-]	1.88 ± 0.2
CCCC [butane] + CCCCCCCCCC[N+](C)(C)CCCCCCCCCC.F[B-](F)(F)F	1.21 ± 0.12
CCCC [butane] + CCCCCCCCCC[N+](C)(C)CCCCCCCCCC.[O-][Cl+3]([O-])([O-])[O-]	1.36 ± 0.14
C1CCCCCC1 [cycloheptane] + CCCCCCCCCC[N+](C)(C)CCCCCCCCCC.F[B-](F)(F)F	1.65 ± 0.17
C1CCCCCC1 [cycloheptane] + CCCCCCCCCC[N+](C)(C)CCCCCCCCCC.[O-][Cl+3]([O-])([O-])[O-]	2.29 ± 0.24
C1CCCCC1 [cyclohexane] + CCCCCCCCCC[N+](C)(C)CCCCCCCCCC.F[B-](F)(F)F	1.47 ± 0.15
C1CCCCC1 [cyclohexane] + CCCCCCCCCC[N+](C)(C)CCCCCCCCCC.[O-][Cl+3]([O-])([O-])[O-]	2.05 ± 0.21
C1CCCC1 [cyclopentane] + CCCCCCCCCC[N+](C)(C)CCCCCCCCCC.F[B-](F)(F)F	1.21 ± 0.12
C1CCCC1 [cyclopentane] + CCCCCCCCCC[N+](C)(C)CCCCCCCCCC.[O-][Cl+3]([O-])([O-])[O-]	1.48 ± 0.15
CCO [ethanol] + CCCCCCCCCC[N+](C)(C)CCCCCCCCCC.F[B-](F)(F)F	0.539 ± 0.058
CCO [ethanol] + CCCCCCCCCC[N+](C)(C)CCCCCCCCCC.[O-][Cl+3]([O-])([O-])[O-]	0.623 ± 0.066
CCCCCCC [heptane] + CCCCCCCCCC[N+](C)(C)CCCCCCCCCC.F[B-](F)(F)F	3.53 ± 0.37
CCCCCCC [heptane] + CCCCCCCCCC[N+](C)(C)CCCCCCCCCC.[O-][Cl+3]([O-])([O-])[O-]	3.11 ± 0.33
C=CCCCC [hex-1-ene] + CCCCCCCCCC[N+](C)(C)CCCCCCCCCC.F[B-](F)(F)F	1.51 ± 0.16
C=CCCCC [hex-1-ene] + CCCCCCCCCC[N+](C)(C)CCCCCCCCCC.[O-][Cl+3]([O-])([O-])[O-]	2.28 ± 0.24
CCCCCC [hexane] + CCCCCCCCCC[N+](C)(C)CCCCCCCCCC.F[B-](F)(F)F	2.73 ± 0.29
CCCCCC [hexane] + CCCCCCCCCC[N+](C)(C)CCCCCCCCCC.[O-][Cl+3]([O-])([O-])[O-]	2.49 ± 0.26
CO [methanol] + CCCCCCCCCC[N+](C)(C)CCCCCCCCCC.F[B-](F)(F)F	0.294 ± 0.039
CO [methanol] + CCCCCCCCCC[N+](C)(C)CCCCCCCCCC.[O-][Cl+3]([O-])([O-])[O-]	0.447 ± 0.051
C=CCCCCCC [oct-1-ene] + CCCCCCCCCC[N+](C)(C)CCCCCCCCCC.F[B-](F)(F)F	0.765 ± 0.079

Same assay, conditions: 323 K; 101.33 kPa; Liquid; Chromatography; x1 = 0

SMILES	activity coefficient
ClCCCl [1,2-dichloroethane] + CCCCCCCCCC[N+](C)(C)CCCCCCCCCC.F[B-](F)(F)F	0.616 ± 0.065
ClCCCl [1,2-dichloroethane] + CCCCCCCCCC[N+](C)(C)CCCCCCCCCC.[O-][Cl+3]([O-])([O-])[O-]	0.464 ± 0.052
C=CCCCCC [1-heptene] + CCCCCCCCCC[N+](C)(C)CCCCCCCCCC.F[B-](F)(F)F	1.81 ± 0.19
C=CCCCCC [1-heptene] + CCCCCCCCCC[N+](C)(C)CCCCCCCCCC.[O-][Cl+3]([O-])([O-])[O-]	1.85 ± 0.19
C#CCCCCC [1-heptyne] + CCCCCCCCCC[N+](C)(C)CCCCCCCCCC.F[B-](F)(F)F	0.893 ± 0.091
C#CCCCCC [1-heptyne] + CCCCCCCCCC[N+](C)(C)CCCCCCCCCC.[O-][Cl+3]([O-])([O-])[O-]	1.1 ± 0.11
C#CCCCC [1-hexyne] + CCCCCCCCCC[N+](C)(C)CCCCCCCCCC.F[B-](F)(F)F	0.838 ± 0.086
C#CCCCC [1-hexyne] + CCCCCCCCCC[N+](C)(C)CCCCCCCCCC.[O-][Cl+3]([O-])([O-])[O-]	0.83 ± 0.085
C=CCCC [1-pentene] + CCCCCCCCCC[N+](C)(C)CCCCCCCCCC.F[B-](F)(F)F	1.2 ± 0.12
C=CCCC [1-pentene] + CCCCCCCCCC[N+](C)(C)CCCCCCCCCC.[O-][Cl+3]([O-])([O-])[O-]	1.56 ± 0.16
C/C=C(\C)CC [(E)-3-methyl-2-pentene] + CCCCCCCCCC[N+](C)(C)CCCCCCCCCC.F[B-](F)(F)F	1.71 ± 0.18
C/C=C(\C)CC [(E)-3-methyl-2-pentene] + CCCCCCCCCC[N+](C)(C)CCCCCCCCCC.[O-][Cl+3]([O-])([O-])[O-]	1.48 ± 0.15
C/C=C/C(C)C [(E)-4-methyl-2-pentene] + CCCCCCCCCC[N+](C)(C)CCCCCCCCCC.F[B-](F)(F)F	1.68 ± 0.17
C/C=C/C(C)C [(E)-4-methyl-2-pentene] + CCCCCCCCCC[N+](C)(C)CCCCCCCCCC.[O-][Cl+3]([O-])([O-])[O-]	1.68 ± 0.17
CC(C)=O [acetone] + CCCCCCCCCC[N+](C)(C)CCCCCCCCCC.F[B-](F)(F)F	0.991 ± 0.1
CC(C)=O [acetone] + CCCCCCCCCC[N+](C)(C)CCCCCCCCCC.[O-][Cl+3]([O-])([O-])[O-]	0.489 ± 0.054
CC#N [acetonitrile] + CCCCCCCCCC[N+](C)(C)CCCCCCCCCC.F[B-](F)(F)F	1.21 ± 0.12
CC#N [acetonitrile] + CCCCCCCCCC[N+](C)(C)CCCCCCCCCC.[O-][Cl+3]([O-])([O-])[O-]	0.543 ± 0.059
c1ccccc1 [benzene] + CCCCCCCCCC[N+](C)(C)CCCCCCCCCC.F[B-](F)(F)F	0.499 ± 0.055
c1ccccc1 [benzene] + CCCCCCCCCC[N+](C)(C)CCCCCCCCCC.[O-][Cl+3]([O-])([O-])[O-]	0.499 ± 0.055
CCCC [butane] + CCCCCCCCCC[N+](C)(C)CCCCCCCCCC.F[B-](F)(F)F	1.12 ± 0.12
CCCC [butane] + CCCCCCCCCC[N+](C)(C)CCCCCCCCCC.[O-][Cl+3]([O-])([O-])[O-]	1.32 ± 0.14
CCC(C)=O [butanone] + CCCCCCCCCC[N+](C)(C)CCCCCCCCCC.F[B-](F)(F)F	1.07 ± 0.11

SMILES	activity coefficient
CCC(C)=O [butanone] + CCCCCCCCCC[N+](C)(C)CCCCCCCCCC.[O-][Cl+3]([O-])([O-])[O-]	0.532 ± 0.058
C1CCCCCC1 [cycloheptane] + CCCCCCCCCC[N+](C)(C)CCCCCCCCCC.F[B-](F)(F)F	1.61 ± 0.17
C1CCCCCC1 [cycloheptane] + CCCCCCCCCC[N+](C)(C)CCCCCCCCCC.[O-][Cl+3]([O-])([O-])[O-]	2.04 ± 0.21
C1CCCCC1 [cyclohexane] + CCCCCCCCCC[N+](C)(C)CCCCCCCCCC.F[B-](F)(F)F	1.43 ± 0.15
C1CCCCC1 [cyclohexane] + CCCCCCCCCC[N+](C)(C)CCCCCCCCCC.[O-][Cl+3]([O-])([O-])[O-]	1.78 ± 0.19
O=C1CCCCC1 [cyclohexanone] + CCCCCCCCCC[N+](C)(C)CCCCCCCCCC.F[B-](F)(F)F	9.47 ± 1
O=C1CCCCC1 [cyclohexanone] + CCCCCCCCCC[N+](C)(C)CCCCCCCCCC.[O-][Cl+3]([O-])([O-])[O-]	11.7 ± 1.2
C1CCCC1 [cyclopentane] + CCCCCCCCCC[N+](C)(C)CCCCCCCCCC.F[B-](F)(F)F	1.17 ± 0.12
C1CCCC1 [cyclopentane] + CCCCCCCCCC[N+](C)(C)CCCCCCCCCC.[O-][Cl+3]([O-])([O-])[O-]	1.16 ± 0.12
CCOCC [diethyl ether] + CCCCCCCCCC[N+](C)(C)CCCCCCCCCC.F[B-](F)(F)F	1.08 ± 0.11
CCOCC [diethyl ether] + CCCCCCCCCC[N+](C)(C)CCCCCCCCCC.[O-][Cl+3]([O-])([O-])[O-]	1.03 ± 0.1
CCO [ethanol] + CCCCCCCCCC[N+](C)(C)CCCCCCCCCC.F[B-](F)(F)F	0.469 ± 0.052
CCO [ethanol] + CCCCCCCCCC[N+](C)(C)CCCCCCCCCC.[O-][Cl+3]([O-])([O-])[O-]	0.497 ± 0.055
CCCCCCC [heptane] + CCCCCCCCCC[N+](C)(C)CCCCCCCCCC.F[B-](F)(F)F	3.04 ± 0.32
CCCCCCC [heptane] + CCCCCCCCCC[N+](C)(C)CCCCCCCCCC.[O-][Cl+3]([O-])([O-])[O-]	2.96 ± 0.31
C=CCCCC [hex-1-ene] + CCCCCCCCCC[N+](C)(C)CCCCCCCCCC.F[B-](F)(F)F	1.52 ± 0.16
C=CCCCC [hex-1-ene] + CCCCCCCCCC[N+](C)(C)CCCCCCCCCC.[O-][Cl+3]([O-])([O-])[O-]	1.56 ± 0.16
CCCCCC [hexane] + CCCCCCCCCC[N+](C)(C)CCCCCCCCCC.F[B-](F)(F)F	2.51 ± 0.26
CCCCCC [hexane] + CCCCCCCCCC[N+](C)(C)CCCCCCCCCC.[O-][Cl+3]([O-])([O-])[O-]	2.48 ± 0.26
CO [methanol] + CCCCCCCCCC[N+](C)(C)CCCCCCCCCC.F[B-](F)(F)F	0.289 ± 0.038
CO [methanol] + CCCCCCCCCC[N+](C)(C)CCCCCCCCCC.[O-][Cl+3]([O-])([O-])[O-]	0.351 ± 0.043
C=CCCCCCC [oct-1-ene] + CCCCCCCCCC[N+](C)(C)CCCCCCCCCC.F[B-](F)(F)F	0.757 ± 0.078

Same assay, conditions: 338 K; 101.33 kPa; Liquid; Chromatography; x1 = 0

SMILES	activity coefficient
ClCCCl [1,2-dichloroethane] + CCCCCCCCCC[N+](C)(C)CCCCCCCCCC.F[B-](F)(F)F	0.622 ± 0.066
ClCCCl [1,2-dichloroethane] + CCCCCCCCCC[N+](C)(C)CCCCCCCCCC.[O-][Cl+3]([O-])([O-])[O-]	0.494 ± 0.055
C=CCCCCC [1-heptene] + CCCCCCCCCC[N+](C)(C)CCCCCCCCCC.F[B-](F)(F)F	1.83 ± 0.19
C=CCCCCC [1-heptene] + CCCCCCCCCC[N+](C)(C)CCCCCCCCCC.[O-][Cl+3]([O-])([O-])[O-]	2.23 ± 0.23
C#CCCCCC [1-heptyne] + CCCCCCCCCC[N+](C)(C)CCCCCCCCCC.F[B-](F)(F)F	0.894 ± 0.091
C#CCCCCC [1-heptyne] + CCCCCCCCCC[N+](C)(C)CCCCCCCCCC.[O-][Cl+3]([O-])([O-])[O-]	1.17 ± 0.12
C#CCCCC [1-hexyne] + CCCCCCCCCC[N+](C)(C)CCCCCCCCCC.F[B-](F)(F)F	0.826 ± 0.085
C#CCCCC [1-hexyne] + CCCCCCCCCC[N+](C)(C)CCCCCCCCCC.[O-][Cl+3]([O-])([O-])[O-]	0.989 ± 0.1
C=CCCC [1-pentene] + CCCCCCCCCC[N+](C)(C)CCCCCCCCCC.F[B-](F)(F)F	1.13 ± 0.12
